Laboratory results published in PubChem BioAssay (NCI).
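Assay format: 96-well plates, 48-hour exposure. Definition used: TGI = concentration required for complete inhibition of growth.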

Experiments:
Test in all cases: NCI-60 cell line screen, 48 h
[1] = test system: UACC-257 melanoma
[2] = test system: TK-10 renal
[3] = test system: MDA-MB-435
[4] = test system: HT29 colon
[5] = test system: MDA-MB-231 breast
[6] = test system: KM12 colon
[7] = test system: OVCAR-3 ovarian
[8] = test system: A549 NSCLC
[9] = test system: BT-549 breast
[10] = test system: MOLT-4 leukemia
[11] = test system: OVCAR-4 ovarian
[12] = test system: SK-MEL-5 melanoma
[13] = test system: MDA-N
[14] = test system: SNB-75 CNS
[15] = test system: HCT-116 colon
[16] = test system: HOP-92 NSCLC
[17] = test system: 786-0 renal
[18] = test system: NCI/ADR-RES ovarian
[19] = test system: SW-620 colon
[20] = test system: NCI-H23 lung
[21] = test system: NCI-H460 lung
[22] = test system: SNB-19 CNS
[23] = test system: SF-268 CNS
[24] = test system: U251 CNS
[25] = test system: PC-3 prostate
[26] = test system: K-562 leukemia
[27] = test system: SK-OV-3 ovarian
[28] = test system: M14 melanoma
[29] = test system: UACC-62 melanoma
[30] = test system: SN12C renal
[31] = test system: T-47D breast
[32] = test system: LOX IMVI melanoma
[33] = test system: RXF 393 renal
[34] = test system: HCT-15 colon
[35] = test system: A498 renal
[36] = test system: SF-295 CNS
[37] = test system: CAKI-1 renal
[38] = test system: HCC-2998 colon
[39] = test system: OVCAR-8 ovarian
[40] = test system: HOP-62 NSCLC
[41] = test system: DU-145 prostate
[42] = test system: COLO 205 colon
[43] = test system: ACHN renal
[44] = test system: MCF7 breast
[45] = test system: SF-539 CNS
[46] = test system: SK-MEL-28 melanoma
[47] = test system: UO-31 renal
[48] = test system: SK-MEL-2 melanoma
[49] = test system: NCI-H522 lung
[50] = test system: EKVX NSCLC
[51] = test system: NCI-H226 lung
[52] = test system: OVCAR-5 ovarian
[53] = test system: MALME-3M melanoma
[54] = test system: HL-60(TB) leukemia
[55] = test system: HS 578T breast
[56] = test system: CCRF-CEM leukemia
[57] = test system: SR leukemia
[58] = test system: RPMI-8226 leukemia
[59] = test system: IGROV1 ovarian

`CSC(=NC1=NC(C(F)(F)F)(C(F)(F)F)N=C(c2ccccc2)O1)SC` gave a TGI [1] of 60.5 µM, a TGI [2] of over 100 µM and a TGI [3] of 55 µM. For the same compound, the TGI [4] was 61 µM, the TGI [5] was 88.1 µM and the TGI [6] was 20.7 µM. It also gave a TGI [7] of 63.9 µM, a TGI [8] of over 100 µM and a TGI [9] of 82.4 µM. For the same compound, the TGI [10] was 85.3 µM, the TGI [11] was 59.1 µM and the TGI [12] was 33.1 µM. It also gave a TGI [13] of 41.7 µM, a TGI [14] of 18.9 µM and a TGI [15] of 16.3 µM. It also gave a TGI [16] of 49.2 µM, a TGI [17] of 43.5 µM and a TGI [18] of 90.9 µM. For the same compound, the TGI [19] was over 100 µM, the TGI [20] was 65.5 µM and the TGI [21] was over 100 µM. The TGI [22] was over 100 µM, the TGI [23] was over 100 µM and the TGI [24] was 75.2 µM. For the same compound, the TGI [25] was 38.9 µM, the TGI [26] was over 100 µM and the TGI [27] was over 100 µM. The TGI [28] was 54.6 µM, the TGI [29] was 64.2 µM and the TGI [30] was 42.9 µM. It also gave a TGI [31] of 24.2 µM, a TGI [32] of 42.8 µM and a TGI [33] of 24.5 µM. The TGI [34] was 33.5 µM, the TGI [35] was 51.6 µM and the TGI [36] was over 100 µM. The TGI [37] was 44.8 µM, the TGI [38] was 39.6 µM and the TGI [39] was over 100 µM. It also gave a TGI [40] of 59 µM, a TGI [41] of 45 µM and a TGI [42] of 46.5 µM. It also gave a TGI [43] of 14.9 µM, a TGI [44] of 60.5 µM and a TGI [45] of over 100 µM. The TGI [46] was over 100 µM, the TGI [47] was 89.2 µM and the TGI [48] was 55.9 µM. The TGI [49] was 25 µM, the TGI [50] was 42.3 µM and the TGI [51] was 83.9 µM. The TGI [52] was 82.3 µM, the TGI [53] was 37.7 µM and the TGI [54] was 64 µM. For the same compound, the TGI [55] was 72.5 µM, the TGI [56] was over 100 µM and the TGI [57] was 76.1 µM.
Work on `Cc1[nH]c(-c2ccccc2)c(-c2ccc(Cl)cc2)c1C(=O)ONC(=O)c1ccccc1` yielded a TGI [1] of 20.8 µM, a TGI [2] of 9.76 µM and a TGI [3] of 11.9 µM. For the same compound, the TGI [4] was 22.9 µM, the TGI [5] was 12.1 µM and the TGI [6] was over 48.3 µM. The TGI [7] was 14.9 µM, the TGI [8] was 10.4 µM and the TGI [9] was 9.94 µM. It also gave a TGI [10] of 6.97 µM, a TGI [12] of 14.1 µM and a TGI [13] of 4.45 µM. It also gave a TGI [58] of over 48.4 µM, a TGI [14] of 15.1 µM and a TGI [15] of 5.24 µM. The TGI [16] was 4.01 µM, the TGI [17] was 4.46 µM and the TGI [18] was 14.2 µM. For the same compound, the TGI [19] was 31.7 µM, the TGI [20] was 15.3 µM and the TGI [21] was 5.11 µM. It also gave a TGI [22] of 19.3 µM, a TGI [23] of 6.9 µM and a TGI [24] of 3.6 µM. For the same compound, the TGI [25] was 17.2 µM, the TGI [26] was 16.7 µM and the TGI [27] was 32.4 µM. For the same compound, the TGI [28] was 19.9 µM, the TGI [29] was 23.3 µM and the TGI [30] was 5.21 µM. For the same compound, the TGI [31] was 18.1 µM, the TGI [32] was 2.87 µM and the TGI [33] was 6.69 µM. For the same compound, the TGI [34] was 21.6 µM, the TGI [35] was 18.4 µM and the TGI [36] was 4.74 µM. It also gave a TGI [37] of 6.88 µM, a TGI [38] of 16.2 µM and a TGI [39] of 17 µM. It also gave a TGI [40] of 5.45 µM, a TGI [41] of 3.76 µM and a TGI [42] of 22.9 µM. The TGI [43] was 3.48 µM, the TGI [44] was 28 µM and the TGI [45] was 6.02 µM. It also gave a TGI [46] of 24.9 µM, a TGI [47] of 2.89 µM and a TGI [48] of 11.2 µM. The TGI [49] was 5.42 µM, the TGI [59] was 2.52 µM and the TGI [50] was 9.77 µM. It also gave a TGI [51] of 11.6 µM, a TGI [52] of 20 µM and a TGI [53] of 23.5 µM. For the same compound, the TGI [54] was 3.29 µM, the TGI [55] was 5.72 µM and the TGI [56] was over 21.8 µM.
With `NC(N)=N/N=C/c1nc2sccn2c1[N+](=O)[O-]` the TGI [1] was 31.7 µM, the TGI [2] was over 100 µM and the TGI [3] was 39.9 µM. The TGI [4] was 67.7 µM, the TGI [5] was 80.5 µM and the TGI [6] was 47.6 µM. For the same compound, the TGI [7] was 50.5 µM, the TGI [8] was over 100 µM and the TGI [9] was over 100 µM. It also gave a TGI [11] of 33.6 µM, a TGI [12] of 33.9 µM and a TGI [13] of 39.1 µM. For the same compound, the TGI [58] was over 100 µM, the TGI [14] was 39.5 µM and the TGI [15] was 59.6 µM. For the same compound, the TGI [16] was over 100 µM, the TGI [17] was over 100 µM and the TGI [18] was over 100 µM. The TGI [19] was over 100 µM, the TGI [20] was 36.7 µM and the TGI [21] was 40.9 µM. The TGI [22] was over 100 µM, the TGI [23] was over 100 µM and the TGI [24] was over 100 µM. The TGI [25] was over 100 µM, the TGI [26] was 85.8 µM and the TGI [27] was over 100 µM. It also gave a TGI [28] of 52.7 µM, a TGI [29] of over 100 µM and a TGI [30] of over 100 µM. For the same compound, the TGI [31] was 65.1 µM, the TGI [32] was 56.1 µM and the TGI [33] was 36.9 µM. For the same compound, the TGI [34] was over 100 µM, the TGI [35] was over 100 µM and the TGI [36] was over 100 µM. It also gave a TGI [37] of over 100 µM, a TGI [39] of over 100 µM and a TGI [40] of over 100 µM. For the same compound, the TGI [41] was 57.1 µM, the TGI [42] was 29.7 µM and the TGI [43] was over 100 µM. For the same compound, the TGI [44] was 36.4 µM, the TGI [45] was over 100 µM and the TGI [46] was over 100 µM. For the same compound, the TGI [47] was over 100 µM, the TGI [48] was 41.8 µM and the TGI [49] was 89.9 µM. For the same compound, the TGI [59] was over 100 µM, the TGI [50] was over 100 µM and the TGI [51] was over 100 µM. It also gave a TGI [52] of over 100 µM, a TGI [53] of 26.3 µM and a TGI [54] of 34.1 µM. The TGI [55] was 98.4 µM and the TGI [57] was over 100 µM.
